Laboratory results published in US9409884B2 (Rigel Pharmaceuticals, Inc., priority 2012, dated 2016).
pEC50: −log10 of the molar value.

What follows are compounds tested against AMPK (assay: AMPK activation, enzyme-linked immunosorbent assay). Settings: Table 13, compounds of Table 6.
Type: biochemical
How it was run: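 AMPK activation by test compounds was measured by enzyme-linked immunosorbent assay.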

SMILES	pEC50
CS(=O)(=O)c1ccc(CN2CCN(C(=O)c3ccc4cc(C(=O)NC5CCN(Cc6ccc(C#N)cc6)CC5)oc4c3)CC2)cc1 [Compound 6-2, N-(1-(4-cyanobenzyl)piperidin-4-yl)-6-(4-(4-(methylsulfonyl)benzyl)piperazine-1-carbonyl) benzofuran-2-carboxamide]	6.00 to 7.00
COc1ccc(CN2CCC(NC(=O)c3cc4ccc(C(=O)N5CCN(Cc6ccc(S(C)(=O)=O)cc6)CC5)cc4o3)CC2)cc1 [Compound 6-3, N-(1-(4-methoxybenzyl)piperidin-4-yl)-6-(4-(4-(methylsulfonyl)benzyl)piperazine-1-carbonyl) benzofuran-2-carboxamide]	> 7.00
CS(=O)(=O)c1ccc(CN2CCN(C(=O)c3ccc4cc(C(=O)NC5CCN(Cc6ccc(OC(F)(F)F)cc6)CC5)oc4c3)CC2)cc1 [Compound 6-4, 6-(4-(4-(methylsulfonyl)benzyl)piperazine-1-carbonyl)-N-(1-(4-(trifluoromethoxy)benzyl)piperidin-4-yl)benzofuran-2-carboxamide]	6.00 to 7.00
COc1ccc(CN2CCC(NC(=O)c3cc4ccc(C(=O)N5CCN(Cc6ccc(S(C)(=O)=O)cc6)CC5)cc4o3)CC2)cc1F [Compound 6-5, N-(1-(3-fluoro-4-methoxybenzyl)piperidin-4-yl)-6-(4-(4-(methylsulfonyl)benzyl)piperazine-1-carbonyl) benzofuran-2-carboxamide]	> 7.00
CC(=O)c1ccc(Oc2ccc(NC(=O)c3cc4ccc(C(=O)N5CCN(Cc6ccc(S(C)(=O)=O)cc6)CC5)cc4o3)cn2)cc1 [Compound 6-6, N-(6-(4-acetylphenoxy)pyridin-3-yl)-6-(4-(4-(methylsulfonyl)benzyl)piperazine-1-carbonyl) benzofuran-2-carboxamide]	> 7.00
CS(=O)(=O)c1ccc(CN2CCN(C(=O)c3ccc4cc(C(=O)NC5CCN(Cc6ccc(OC(F)(F)C(F)F)cc6)CC5)oc4c3)CC2)cc1 [Compound 6-7, 6-(4-(4-(methylsulfonyl)benzyl)piperazine-1-carbonyl)-N-(1-(4-(1,1,2,2-tetrafluoroethoxy)benzyl)piperidin-4-yl)benzofuran-2-carboxamide]	> 7.00
CS(=O)(=O)c1ccc(CN2CCN(C(=O)c3ccc4cc(C(=O)Nc5ccc(Oc6ccc(C#N)cc6)nc5)oc4c3)CC2)cc1 [Compound 6-8, N-(6-(4-cyanophenoxy)pyridin-3-yl)-6-(4-(4-(methylsulfonyl)benzyl)piperazine-1-carbonyl) benzofuran-2-carboxamide]	> 7.00
CS(=O)(=O)c1ccc(N2CCN(c3ccc4oc(C(=O)NC5CCN(Cc6ccc(C#N)cc6)CC5)cc4c3)CC2)cc1 [Compound 6-9, N-(1-(4-cyanobenzyl)piperidin-4-yl)-5-(4-(4-(methylsulfonyl)phenyl)piperazin-1-yl)benzofuran-2-carboxamide]	6.00 to 7.00
CS(=O)(=O)c1ccc(CN2CCN(c3ccc4oc(C(=O)NC5CCN(Cc6ccc(C#N)cc6)CC5)cc4c3)CC2)cc1 [Compound 6-10, N-(1-(4-cyanobenzyl)piperidin-4-yl)-5-(4-(4-(methylsulfonyl)benzyl)piperazin-1-yl)benzofuran-2-carboxamide]	> 7.00
N#Cc1ccc(CN2CCC(NC(=O)c3cc4cc(C(=O)N5CCN(Cc6ccc(F)cc6)CC5)ccc4o3)CC2)cc1 [Compound 6-11, N-(1-(4-cyanobenzyl)piperidin-4-yl)-5-(4-(4-fluorobenzyl)piperazine-1-carbonyl)benzofuran-2-carboxamide]	> 7.00
O=C(Nc1ccc(Oc2ccccc2)cc1)c1cc2cc(C(=O)N3CCN(Cc4ccc(F)cc4)CC3)ccc2o1 [Compound 6-12, 5-(4-(4-fluorobenzyl)piperazine-l-carbonyl)-N-(4-phenoxyphenyl)benzofuran-2-carboxamide]	> 7.00
N#Cc1ccc(CN2CCC(NC(=O)c3cc4cc(CN5CCN(Cc6ccc(F)cc6)CC5)ccc4o3)CC2)cc1 [Compound 6-13, N-(1-(4-cyanobenzyl)piperidin-4-yl)-5-((4-(4-fluorobenzyl)piperazin-1-yl)methyl)benzofuran-2-carboxamide]	> 7.00
N#Cc1ccc(CN2CCC(NC(=O)c3cc4cc(CN5CCC(Oc6ccc(C#N)cc6)CC5)ccc4o3)CC2)cc1 [Compound 6-14, N-(1-(4-cyanobenzyl)piperidin-4-yl)-5-((4-(4-cyanophenoxy)piperidin-1-yl)methyl)benzofuran-2-carboxamide]	> 7.00
O=C(NC1CCN(Cc2ccncc2)CC1)c1cc2cc(C(=O)N3CCC(C(=O)c4ccc(F)cc4)CC3)ccc2o1 [Compound 6-15, 5-(4-(4-fluorobenzoyl)piperidine-1-carbonyl)-N-(1-(pyridin-4-ylmethyl)piperidin-4-yl)benzofuran-2-carboxamide]	6.00 to 7.00
N#Cc1ccc(CN2CCC(NC(=O)c3cc4cc(C(=O)N5CCC(C(=O)c6ccc(F)cc6)CC5)ccc4o3)CC2)cc1 [Compound 6-16, N-(1-(4-cyanobenzyl)piperidin-4-yl)-5-(4-(4-fluorobenzoyl)piperidine-1-carbonyl)benzofuran-2-carboxamide]	> 7.00
N#Cc1ccc(Oc2ccc(NC(=O)c3cc4cc(C(=O)N5CCC(C(=O)c6ccc(F)cc6)CC5)ccc4o3)cn2)cc1 [Compound 6-17, N-(6-(4-cyanophenoxy)pyridin-3-yl)-5-(4-(4-fluorobenzoyl)piperidine-1-carbonyl)benzofuran-2-carboxamide]	> 7.00
O=C(NC1CCN(Cc2ccncc2)CC1)c1cc2cc(C(=O)N3CCC(Oc4ccc(F)cc4)CC3)ccc2o1 [Compound 6-18, 5-(4-(4-fluorophcnoxy)piperidine-1-carbonyl)-N-(1-(pyridin-4-ylmethyl)piperidin-4-yl)benzofuran-2-carboxamide]	> 7.00
N#Cc1ccc(CN2CCC(NC(=O)c3cc4cc(C(=O)N5CCC(Oc6ccc(F)cc6)CC5)ccc4o3)CC2)cc1 [Compound 6-19, N-(1-(4-cyanobenzyl)piperidin-4-yl)-5-(4-(4-fluorophenoxy)piperidine-1-carbonyl)benzofuran-2-carboxamide]	> 7.00
COc1ccc(CN2CCC(NC(=O)c3cc4cc(NC(=O)C5CCN(c6ccc(C#N)cc6)CC5)ccc4o3)CC2)cc1 [Compound 6-21, 1-(4-cyanophenyl)-N-(2-(1-(4-methoxybenzyl)piperidin-4-ylcarbamoyl)benzofuran-5-yl)piperidine-4-carboxamide]	> 7.00
N#Cc1ccc(N2CCC(C(=O)Nc3ccc4oc(C(=O)N5CCC(Oc6ccc(C(F)(F)F)cc6)CC5)cc4c3)CC2)cc1 [Compound 6-22, 1-(4-cyanophenyl)-N-(2-(4-(4-(trifluoromethyl)phenoxy)piperidine-1-carbonyl)benzofuran-5-yl)piperidine-4-carboxamide]	> 7.00
COc1ccc(CN2CCC(NC(=O)c3cc4cc(NC(=O)c5ccc(Oc6ccc(F)cc6)cc5)ccc4o3)CC2)cc1 [Compound 6-23, 5-(4-(4-fluorophenoxy)benzamido)-N-(1-(4-methoxybenzyl)piperidin-4-yl)benzofuran-2-carboxamide]	6.00 to 7.00
O=C(Nc1ccc2oc(C(=O)N3CCC(Oc4ccc(C(F)(F)F)cc4)CC3)cc2c1)c1ccc(Oc2ccc(F)cc2)cc1 [Compound 6-24, 4-(4-fluorophenoxy)-N-(2-(4-(4-(trifluoromethyl)phenoxy)piperidine-1-carbonyl)benzofuran-5-yl)benzamide]	> 7.00
COc1ccc(CN2CCC(NC(=O)c3cc4cc(C(=O)N5CCC(Oc6ccc(C(F)(F)F)cc6)CC5)ccc4o3)CC2)cc1 [Compound 6-25, N-(1-(4-methoxybenzyl)piperidin-4-yl)-5-(4-(4-(trifluoromethyl)phenoxy)piperidine-1-carbonyl) benzofuran-2-carboxamide]	> 7.00
O=C(Nc1ccc(Oc2ccc(F)cc2)nc1)c1cc2cc(C(=O)N3CCC(Oc4ccc(C(F)(F)F)cc4)CC3)ccc2o1 [Compound 6-26, N-(6-(4-fluorophenoxy)pyridin-3-yl)-5-(4-(4-(trifluoromethyl)phenoxy)piperidine-1-carbonyl) benzofuran-2-carboxamide]	> 7.00
N#Cc1ccc(CN2CCC(NC(=O)c3cc4cc(CN5CCC(Oc6ccc(C(F)(F)F)cc6)CC5)ccc4o3)CC2)cc1 [Compound 6-27, N-(1-(4-cyanobenzyl)piperidin-4-yl)-5-((4-(4-(trifluoromethyl)phenoxy)piperidin-1-yl)methyl) benzofuran-2-carboxamide]	> 7.00
O=C(NC1CCN(Cc2cc(F)cc(F)c2)CC1)c1cc2cc(CN3CCC(Oc4ccc(C(F)(F)F)cc4)CC3)ccc2o1 [Compound 6-28, N-(1-(3,5-difluorobenzyl)piperidin-4-yl)-5-((4-(4-(trifluoromethyl)phenoxy)piperidin-1-yl)methyl) benzofuran-2-carboxamide]	> 7.00
O=C(Nc1ccc(Oc2ccc(F)cc2)nc1)c1cc2cc(CN3CCC(Oc4ccc(C(F)(F)F)cc4)CC3)ccc2o1 [Compound 6-29, N-(6-(4-fluorophenoxy)pyridin-3-yl)-5-((4-(4-(trifluoromethyl)phenoxy)piperidin-1-yl)methyl) benzofuran-2-carboxamide]	> 7.00
COc1ccc(CN2CCC(C(=O)Nc3ccc4oc(C(=O)NC5CCN(Cc6ccc(C#N)cc6)CC5)cc4c3)CC2)cc1 [Compound 6-40, N-(2-(1-(4-cyanobenzyl)piperidin-4-ylcarbamoyl)benzofuran-5-yl)-1-(4-methoxybenzyl)piperidine-4-carboxamide]	5.00 to 6.00
N#Cc1ccc(CN2CCC(NC(=O)c3cc4cc(NC(=O)C5CCN(Cc6cnn(-c7ccccn7)c6)CC5)ccc4o3)CC2)cc1 [Compound 6-41, N-(2-(1-(4-cyanobenzyl)piperidin-4-ylcarbamoyl)benzofuran-5-yl)-1-((1-(pyridin-2-yl)-1H-pyrazol-4-yl)methyl)piperidine-4-carboxamide]	5.00 to 6.00
N#Cc1ccc(CN2CCC(NC(=O)c3cc4cc(NC(=O)C5CCN(Cc6cnn(-c7ccc(C#N)cc7)c6)CC5)ccc4o3)CC2)cc1 [Compound 6-42, N-(2-(1-(4-cyanobenzyl)piperidin-4-ylcarbamoyl)benzofuran-5-yl)-1-((1-(4-cyanophenyl)-1H-pyrazol-4-yl)methyl)piperidine-4-carboxamide]	5.00 to 6.00
